Counter-ions that a name gives are not always drawn.
Each compound was assayed on aconitin-induced atrial fibrillation (assay: Aconitin-induced atrial fibrillation model in anaesthetized dogs (Pharmacological Trial 1)). Settings: Canis lupus familiaris; intravenous, anesthetized dogs, as hydrochloride; read-out: minimum dose level which suppresses atrial fibrillation.
Format: in vivo, dog
Experimental: Pharmacological Trial 1: Evaluation of effectiveness in aconitin-induced atrial fibrillation model (dogs) Evaluation was performed according to K. Hashimoto (Jpn. J. Pharmacol., Vol. 46, 349-358, 1988) as follows:
Method: Dog was anesthetized and thoracotomy was made. Persistent atrial fibrillation was induced by placing a piece of filter paper impregnated with 0.5% aconitin solution (20 to 30 μl) on the right atrium. […] Onset and suppression of atrial fibrillation were monitored electrocardiographically by placing Ag--AgCl bipolar electrode on the right atrial auricle.
Results: Each compound in Examples 1 to 87 suppressed atrial fibrillation at least following dose level (all compounds were used in the form of hydrochloride).

Compound	minimal effective dose [mg/kg]
Cc1cc(NC(=O)C2CCOCC2)ccc1OCCNC(C)C.Cl [Example 77, 4'-[2-(Isopropylamino)ethoxy]-3'-methyl-3,4,5,6-tetrahydro-2H-pyran-4-carboxanilide Hydrochloride]	10
COc1cccc(OC)c1C(=O)Nc1ccc(OCCNC(C)C)c(C)c1.Cl [Example 74, 4'-[2-(Isopropylamino)ethoxy]-2,6-dimethoxy-3'-methylbenzanilide Hydrochloride]	3
COc1cc(NC(=O)c2ccccc2NS(C)(=O)=O)ccc1OCCNC(C)C [Example 58, 4'-[2-(Isopropylamino)ethoxy]-2-meth anesulfonamido-3'-methoxybenzanilide]	10
COCCCNCCOc1ccc(NC(=O)c2c(OC)cccc2OC)cc1 [Example 48, 2,6-Dimethoxy-4'-[2-[(3-methoxypropyl)amino]ethoxy]benzanilide]	3
COc1cc(NC(=O)c2c(OC)cccc2OC)ccc1OCCNC1CCCC1.Cl [Example 62, 4'-[2-(Cyclopentylamino)ethoxy]-2,6-dimethoxy-3'-methoxybenzanilide Hydrochloride]	10
COc1cc(NC(=O)c2c(OC)cccc2OC)ccc1OCCNC(C)C.Cl [Example 4, 4'-[2-(isopropylamino)ethoxy]-2,6-dimethoxy-3'-methoxybenzanilide Hydrochloride]	10
COCCC(=O)Nc1ccc(OCCNC(C)C)cc1.Cl [Example 36, 4'-[2-(Isopropylamino)ethoxy]-3-methoxypropananilide Hydrochloride]	10
CC(C)NCCOc1ccc(NC(=O)c2ccccc2NS(C)(=O)=O)cc1.Cl [Example 29, 4'-[2-(Isopropylamino)ethoxy]-2-(methanesulfonamido) benzanilide Hydrochloride]	0.3
Cc1cc(NC(=O)c2ccoc2)cc(C)c1OCCNC(C)C.Cl [Example 87, 4'-[2-(Isopropylamino)ethoxy]-3',5'-dimethyl-3-furanilide Hydrochloride]	10
Cc1cc(NC(=O)c2ccccc2NS(C)(=O)=O)cc(C)c1OCCNC(C)C.Cl [Example 6, 4'-[2-(isopropylamino)ethoxy]-2-methanesulfonamido-3',5'-dimethylbenzanilide Hydrochloride]	10
CCNCCOc1ccc(NC(=O)CCOC)cc1 [Example 24, 4'-[(2-Ethylamino)ethoxy]-3-methoxypropananilide]	10
Cc1cc(OCCNC(C)C)ccc1NC(=O)c1ccoc1.Cl [Example 72, 4'-[2-(Isopropylamino)ethoxy]-2'-methyl-3-furanilide Hydrochloride]	3
CC(C)NCCOc1ccc(NC(=O)c2ccoc2)cc1.Cl [Example 35, 4'-[2-(Isopropylamino)ethoxy]-3-furanilide Hydrochloride]	10
CC(C)(C)NCCOc1ccc(NC(=O)c2ccccc2NS(C)(=O)=O)cc1 [Example 40, 2-Methanesulfonamido-4'-[2-(tert-butylamino)ethoxy]benzanilide]	0.3
COc1cccc(OC)c1C(=O)Nc1ccc(OCCNC(C)C)cc1C.Cl [Example 69, 4'-[2-(Isopropylamino)ethoxy]-2,6-dimethoxy-2'-methyl benzanilide Hydrochloride]	3
Cc1cc(NC(=O)c2ccccc2S(C)(=O)=O)cc(C)c1OCCNC(C)C.Cl [Example 83, 4'-[2-(Isopropylamino)ethoxy]-2-methanesulfonyl-3',5'-dimethylbenzanilide Hydrochloride]	10
CCNCCOc1ccc(NC(=O)c2ccoc2)cc1OC.Cl [Example 56, 4'-[2-(Ethylamino)ethoxy]-3'-methoxy-3-furanilide Hydrochloride]	10
COc1cccc(OC)c1C(=O)Nc1ccc(OCCN)cc1.Cl [Example 1, 4'-(2-aminoethoxy)-2,6-dimethoxybenzanilide Hydrochloride]	10
CCOCCNCCOc1ccc(NC(=O)c2c(OC)cccc2OC)cc1 [Example 46, 4'-[2-[(2-Ethoxyethyl)amino]ethoxy]-2,6-dimethoxy Benzanilide]	10
COc1cccc(OC)c1C(=O)Nc1ccc(OCCN2CCCC2)cc1 [Example 16, 2,6-Dimethoxy-4'-[2-(1-pyrrolidinyl)ethoxy]benzanilide]	10
CCCCNCCOc1ccc(NC(=O)c2c(OC)cccc2OC)cc1 [Example 37, 4'-[2-(Butylamino)ethoxy]-2,6-dimethoxybenzanilide]	3
CC(C)NCCOc1ccc(NC(=O)c2ccoc2)cc1NS(C)(=O)=O.Cl [Example 67, 4'-[2-(Isopropylamino)ethoxy]-3'-methanesulfonamido-3-furanilide Hydrochloride]	10

Compound	minimal effective dose [mg/kg]
COCCCNCCOc1ccc(NC(=O)c2ccccc2NS(C)(=O)=O)cc1.Cl [Example 49, 2-Methanesulfonamido-4'-[2-[(3-methoxypropyl)amino]ethoxy]benzanilide Hydrochloride]	10
COCCNCCOc1ccc(NC(=O)c2ccccc2NS(C)(=O)=O)cc1 [Example 42, 2-Methanesulfonamido-4'-[2-[(2-methoxyethyl)amino]ethoxy]benzanilide]	3
Cc1cc(NC(=O)c2ccoc2)ccc1OCCNC(C)C.Cl [Example 79, 4'-[2-(Isopropylamino)ethoxy]-3'-methyl-3-furanilide Hydrochloride]	10
CC(C)NCCOc1ccc(NC(=O)c2ccccc2S(C)(=O)=O)cc1NS(C)(=O)=O.Cl [Example 5, 4'-[2-(isopropylamino)ethoxy]-3'-methanesulfonamido-2-(methanesulfonyl)benzanilide Hydrochloride]	10
CCNCCOc1ccc(NC(=O)c2c(OC)cccc2OC)cc1.Cl [Example 20, 4'-[(2-Ethylamino)ethoxy]-2,6-dimethoxybenzanilide Hydrochloride]	10
COc1cccc(OC)c1C(=O)Nc1ccc(OCCN2CCCCC2)cc1 [Example 18, 2,6-Dimethoxy-4'-(2-piperidinoethoxy)benzanilide]	10
COCCC(=O)Nc1ccc(OCCNC2CCCC2)c(OC)c1 [Example 61, 4'-[2-(Cyclopentylamino)ethoxy]-3'-methoxy-3-methoxypropananilide]	10
COc1cccc(OC)c1C(=O)Nc1ccc(OCCNC(C)C)cc1NS(C)(=O)=O [Example 64, 4'-[2-(Isopropylamino)ethoxy]-2'-methanesulfonamido-2,6-dimethoxybenzaniideHydrochloride]	10
COCCNCCOc1ccc(NC(=O)c2c(OC)cccc2OC)cc1 [Example 41, 4'-[2-[(2-Methoxyethyl)amino]ethoxy]-2,6-dimethoxy Benzanilide]	10
Cc1cc(OCCNC(C)C)ccc1NC(=O)c1ccccc1NS(C)(=O)=O.Cl [Example 70, 4'-[2-(Isopropylamino)ethoxy]-2-methanesulfonamido-2'-methylbenzanilide Hydrochloride]	3
Cc1cc(NC(=O)C2CCOC2)cc(C)c1OCCNC(C)C.Cl (centres unmarked) [Example 84, 4'-[2-(Isopropylamino)ethoxy]-3',5'-dimethyl-2,3,4,5-tetrahydro-3-furanilide Hydrochloride]	10
COCCC(=O)Nc1cc(C)c(OCCNC(C)C)c(C)c1.Cl [Example 86, 4'-[2-(Isopropylamino)ethoxy]-3-methoxy-3',5'-dimethyl propananilide Hydrochloride]	3
CCOc1cccc(OCC)c1C(=O)Nc1ccc(OCCN(CC)CC)cc1.Cl [Example 8, 4'-[2-(Diethylamino)ethoxy]-2,6-diethoxybenzanilide Hydrochloride]	10
CCNCCOc1ccc(NC(=O)c2ccccc2NS(C)(=O)=O)cc1.Cl [Example 21, 4'-[(2-Ethylamino)ethoxy]-2-(methanesulfonamido) benzanilide Hydrochloride]	10
Cc1cccc(C)c1C(=O)Nc1ccc(OCCNC(C)C)cc1 [Example 31, 4'-[2-(Isopropylamino)ethoxy]-2,6-dimethylbenzanilide]	10
CC(C)NCCOc1ccc(NC(=O)C2CCOC2)cc1.Cl (centres unmarked) [Example 33, 4'-[2-(Isopropylamino)ethoxy]-2,3,4,5-tetrahydro-3-furanilide Hydrochloride]	10
COCCC(=O)Nc1ccc(OCCNC(C)C)cc1C [Example 71, 4'-[2-(Isopropylamino)ethoxy]-3-methoxy-2'-methylpropananilide]	3
O=C(Nc1ccc(OCCNC2CC2)cc1)C1CCOCC1 [Example 52, 4'-[2-(Cyclopropylamino)ethoxy]-3,4,5,6-tetrahydro-2H-pyran-4-carboxanilideHydrochloride]	3
COc1cccc(OC)c1C(=O)Nc1ccc(OCCNC(C)C)cc1 [Example 30, 4'-[2-(Isopropylamino)ethoxy]-2,6-dimethoxybenzanilide]	10
CCN(CC)CCOc1ccc(NC(=O)c2ccccc2NS(=O)(=O)C(C)C)cc1.Cl [Example 12, 4'-[2-(Diethylamino)ethoxy]-2-(isopropanesulfonamido)benzanilide Hydrochloride]	3
COCCC(=O)Nc1ccc(OCCNC2CC2)cc1 [Example 53, 4'-[2-(Cyclopropylamino)ethoxy]-3-methoxypropananilide]	10

Same assay, conditions: intravenous, anesthetized dogs, as hydrochloride

Compound	minimum dose level which suppresses atrial fibrillation [mg/kg]
4'-[2-(Dipropylamino)ethoxy]-2,6-dimethoxybenzanilide [Example 15]	10
